Source: patent US20090137784A1, “Epidermal Growth Factor Receptor Polypeptides and Antibodies” (priority 2005, published 2009)
*: point of attachment. Biotin = O=C1N[C@H]2[C@H](CS[C@H]2CCCCC(=O)*)N1

Assays:
Assay type in all cases: cell-based
[1] = biological target: T1, EGFR (Homo sapiens, UniProt P00533); test: Biotinylated cyclic polypeptides tested for inhibition of EGFR phosphorylation in a model HMEC cell system; details: biotinylated cyclic polypeptide
T1 construct: endogenous in cells; host or cells: 184A1 human mammary epithelial cells (parental HMEC); also 24H HMEC line (overexpresses HER2)
Text: We selected amino acid sequences corresponding to fragments of Domain II and Domain IV of EGFR. The sequence of each polypeptide is shown in the first column of Table 1. The polypeptides were chosen based on their positions on the crystal structures of monomeric and dimeric EGFR (Burgess et al, Mol. Cell. 12:541-552, 2003). Although Domain IV of EGFR is not resolved in the dimer crystal structure, it is believed that portions of Domain IV come into contact upon dimerization. […] We generated biotinylated cyclic polypeptides that included each sequence and tested them in a model HMEC cell system. The sequences of the biotinylated cyclic polypeptides are shown in the third column of Table 1. […] For the LYNPTTYQMD polypeptide, the different results obtained from polypeptide and polyclonal antisera inhibition could be due to differences in the quantitative details of the assays, or the polypeptide could have a lower affinity for the receptor than the polyclonal antisera does.

[2] = biological target: T1, EGFR; test: Quantitative Western blot of EGFR tyrosine 1173 phosphorylation in HMECs treated with rabbit polyclonal antisera; details: for relative EGFR tyrosine 1173 phosphorylation: HMECs, 2 hours with antisera, then 25 nM EGF for 5 minutes, FIG. 1; for Polyclonal antisera inhibition (EGFR phosphorylation): rabbit polyclonal antisera, 184A1 human mammary epithelial cells
Protocol: Anti-domain II and anti-domain IV rabbit polyclonal antisera were generated against polypeptides LYNPTTYQMD (SEQ ID NO: 1) and MGENNT (SEQ ID NO:4). Briefly, rabbits were injected with one of the peptides, and the resulting antisera were collected. The rabbit sera were purified by ammonium sulfate precipitation followed by desalting. These polyclonal antisera were then used to treat human mammary epithelial cells (HMECs) and to measure the antisera's effect on EGFR tyrosine 1173 phosphorylation by quantitative Western blot analysis. HMECs were grown to 80% confluence and incubated for 2 hours in serum-free media containing various concentrations of the rabbit polyclonal antisera. The cells were then washed and incubated with 25 nM EGF for 5 minutes. The cells were lysed, and the proteins in the lysate were run on a SDS-PAGE gel and transferred onto PDVF membranes. Blots were detected using an anti-EGFR phosphotyrosine 1173 antibody and horseradish peroxidase, and band intensity was quantified using Kodak® 1D 3.5 software. The results are shown in FIG. 1 as relative EGFR tyrosine 1173 phosphorylation in the presence of varying concentrations of polyclonal antisera. The tyrosine phosphorylation in the presence of antiserum has been normalized by total EGFR intensity and tyrosine phosphorylation in the absence of antiserum.
Additional quantitative Western blot analysis was performed to examine EGFR 1173 tyrosine phosphorylation and HER21248 tyrosine phosphorylation in normal, parental HMECs, as well as a 24H HMEC line which overexpresses HER2 (Hendriks et al., Cancer Res. 63:1130-1137, 2003). Western blot analysis was described as above, and the results are depicted in FIGS. 3-6. […] P DII and P DIV are the polyclonal antisera against polypeptides LYNPTTYQMD (SEQ ID NO:1) and MGENNT (SEQ ID NO:4), respectively. For comparison, P 225 is a commercially purchased monoclonal antibody that blocks EGFR ligand binding (Sato et al., Mol. Biol. Med. 1:511-529, 1983). Negative controls are indicated by a (−). […] FIGS. 5 and 6 show relative HER2 1248 tyrosine phosphorylation in parental and 24H HMECs, respectively. The results in FIGS. 3-6 indicate that antibodies that bind to polypeptides LYNPTTYQMD (SEQ ID NO:1) and MGENNT (SEQ ID NO:4) of EGFR can reduce both EGFR and HER2 phosphorylation in normal HMECs, as well as those overexpressing HER2.

[3] = biological target: T2, heterodimerization of HER2 with EGFR (Homo sapiens, UniProt P00533); test: Co-immunoprecipitation of HER2 with EGFR from HMEC lysates; details: HMECs, antiserum 0.1 and 1 μM; FIG. 2
T2 construct: EGFR in each sample was immunoprecipitated from HMEC lysates using an anti-EGFR antibody; endogenous in cells; host or cells: HMEC (human mammary epithelial cells)
Protocol: Next, we analyzed the amount of HER2 co-immunoprecipitated with EGFR in the presence and absence of rabbit polyclonal antiserum against peptide MGENNT. HMECs were treated as before with the antiserum. EGFR in each sample was immunoprecipitated from HMEC lysates using an anti-EGFR antibody obtained from Santa Cruz Biotechnology, Inc. Immunoprecipitates were resolved by SDS-PAGE and blotted with anti-HER2 antibody (Cell Signaling). The results are depicted in FIG. 2, where N is the non-EGF stimulated negative control, P is the cells with no rabbit antisera incubation, and 0.1 and 1 are the concentrations of rabbit polyclonal antisera in μM.

| Substance | Peptide Inhibition (EGFR phosphorylation) [1] | relative EGFR tyrosine 1173 phosphorylation [2] | Polyclonal antisera inhibition (EGFR phosphorylation) [2] | HER2 co-immunoprecipitated with EGFR [3] |
| --- | --- | --- | --- | --- |
| CAHYIDGPHC [Biotin-GCAHYIDGPHCG-CONH2] | Yes | – | – | – |
| CRNVSRGREC [Biotin-GCRNVSRGRECG- CONH2] | Yes | – | – | – |
| LYNPTTYQMD [Biotin-GCGLYNPTTYQMDGCG-CONH2] | No | – | – | – |
| Biotin-GCGLYNPTTYQMDGCG-NH2 (cysteine pairing not given here) | – | decrease the tyrosine phosphorylation of EGFR | Yes | – |
| LVWKYADAG [Biotin-GCLVWKYADAGCG-CONH2] | Yes | – | – | – |
| Biotin-Aha-CMGENNTG-CONH2 | Yes | decrease the tyrosine phosphorylation of EGFR | Yes | less HER2 is co-immunoprecipitated with EGFR |
